Results reported in patent US9808445B2, “Factor IXa inhibitors” (Merck Sharp & Dohme Corp., priority 2014, dated 2017).
Where a name gives a salt, the structure may show the parent alone.

Molecular target: human factor IXa (Homo sapiens (Human), UniProt P00740)
Assay: Determination of inhibitory activity against factor IXa (fluorogenic substrate SPECTROFLUOR FIXa)
Assay type: biochemical
Conditions: Factor IXa enzyme assay human
Method: Inhibitory activity against factor IXa was tested using the substrate SPECTROFLUOR FIXa (american diagnostica inc.; 500 West Avenue, Stamford, Conn. 06902 USA; Pr. No. 299F) and human factor IXa (american diagnostica inc.; Pr. No. 449b). Test substances were dissolved in buffer A (50 mM α,α,α-tris (hydroxymethyl) methylamine (Tris), 100 mM NaCl, 5 mM CaCl2, 15% (v/v) ethylene glycol, pH 8.0) were mixed with factor IXa (0.1 μg/ml final concentration). The enzyme reaction was started by addition of SPECTROFLUOR FIXa (100 μM final concentration). After incubation for 60 minutes at room temperature, the reaction was stopped by the addition of 20% (v/v) acetic acid solution, and then the fluorescence value was measured (Excitation Wavelength: 355 nm, Emission Wavelength; 460 nm) in a microtiter plate reader (ARVO 1420 Multilabel Counter; PerkinElmer).
The IC50 was calculated from a dilution series of the test substance with the aid of the software, Symyx Assay Explorer (Symyx Technologies, Inc.).

Chain of human factor IXa (P00740 227-461): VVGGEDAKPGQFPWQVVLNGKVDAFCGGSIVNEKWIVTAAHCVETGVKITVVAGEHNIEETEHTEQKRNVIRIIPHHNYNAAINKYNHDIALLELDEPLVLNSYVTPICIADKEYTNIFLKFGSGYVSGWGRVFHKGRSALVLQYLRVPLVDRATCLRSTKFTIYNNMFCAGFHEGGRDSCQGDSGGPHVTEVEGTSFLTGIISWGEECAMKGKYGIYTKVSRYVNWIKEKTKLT
Chain of human factor IXa (P00740 47-191 partner): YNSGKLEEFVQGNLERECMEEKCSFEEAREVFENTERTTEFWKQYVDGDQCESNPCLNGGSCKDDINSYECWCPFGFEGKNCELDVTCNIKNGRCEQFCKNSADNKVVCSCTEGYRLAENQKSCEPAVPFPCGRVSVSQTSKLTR

IC50 [nM]	SMILES
≤ 100	Nc1noc2c(N3C[C@@H]4CC[C@H]3[C@@H]4NC(=O)c3ccc(-n4cnnc4)cc3Cl)cccc12 (relative stereo) [Example 1, N-((1S*,4S*, 7R*)-2-(3-Aminobenzo[d]isoxazol-7-yl)-2-azabicyclo[2.2.1]heptan-7-yl)-2-chloro-4-(4H-1,2,4-triazol-4-yl)benzamide]
≤ 100	Cc1cc(N2C[C@@H]3CC[C@H]2[C@@H]3NC(=O)c2c(Cl)cc(-n3cnc(C)n3)cc2Cl)c2onc(N)c2c1 (relative stereo) [Example 3, N-((1S*,4S*,7R*)-2-(3-Amino-5-methylbenzo[d]isoxazol-7-yl)-2-azabicyclo[2.2.1]heptan-7-yl)-2,6-dichloro-4-(3-methyl-1H-1,2,4-triazol-1-yl)benzamide]
≤ 100	Nc1noc2c(N3C[C@@H]4CC[C@H]3[C@@H]4NC(=O)c3ccc(-n4cnnc4C(F)F)cc3Cl)ncc(Cl)c12 (relative stereo) [Example 16, N-((1S*,4S*,7R*)-2-(3-Amino-4-chloroisoxazolo[5,4-c]pyridin-7-yl)-2-azabicyclo[2.2.1]heptan-7-yl)-2-chloro-4-(3-(difluoromethyl)-4H-1,2,4-triazol-4-yl)benzamide]
≤ 100	Cc1ncn(-c2cnc(C(=O)N[C@@H]3[C@H]4CC[C@@H]3N(c3ncc(Cl)c5c(N)noc35)C4)c(Cl)c2)n1 (single isomer, unassigned) [Example 29, N-((1S*,4S*,7R*)-2-(3-Amino-4-chloroisoxazolo[5,4-c]pyridin-7-yl)-2-azabicyclo[2.2.1]heptan-7-yl)-3-chloro-5-(3-methyl-1H-1,2,4-triazol-1-yl)picolinamide]
≤ 100	Nc1noc2c(N3CC4CCC3C4NC(=O)c3ccc(-n4cncn4)cc3Cl)ncc(Cl)c12 (single isomer, unassigned) [Example 8.1, N-((1S*,4S*,7R*)-2-(3-Amino-4-chloroisoxazolo[5,4-c]pyridin-7-yl)-2-azabicyclo[2.2.1]heptan-7-yl)-2-chloro-4-(1H-1,2,4-triazol-1-yl)benzamide]
≤ 100	Cn1ncn(-c2ccc(C(=O)N[C@@H]3[C@H]4CC[C@@H]3N(c3ncc(Cl)c5c(N)noc35)C4)c(Cl)c2)c1=O (relative stereo) [Example 28, N-((1S*,4S*,7R*)-2-(3-Amino-4-chloroisoxazolo[5,4-c]pyridin-7-yl)-2-azabicyclo[2.2.1]heptan-7-yl)-2-chloro-4-(1-methyl-5-oxo-1,5-dihydro-4H-1,2,4-triazol-4-yl)benzamide]
≤ 100	Nc1noc2c(N3C[C@@H]4CC[C@H]3[C@@H]4NC(=O)c3ccc(-c4ccc(=O)n(CCO)c4)cc3Cl)ncc(Cl)c12 (relative stereo) [Example 23, N-((1S*,4S*,7R*)-2-(3-Amino-4-chloroisoxazolo[5,4-c]pyridin-7-yl)-2-azabicyclo[2.2.1]heptan-7-yl)-2-chloro-4-(1-(2-hydroxyethyl)-6-oxo-1,6-dihydropyridin-3-yl)benzamide]
≤ 100	Cc1ncn(-c2ccc(C(=O)NC3C4CCC3N(c3ncc(Cl)c5c(N)noc35)C4)c(Cl)c2)n1 (single isomer, unassigned) [Example 7.1, N-((1S*,4S*,7R*)-2-(3-Amino-4-chloroisoxazolo[5,4-c]pyridin-7-yl)-2-azabicyclo[2.2.1]heptan-7-yl)-2-chloro-4-(3-methyl-1H-1,2,4-triazol-1-yl)benzamide]
≤ 100	Cc1cc2c(N)noc2c(N2C[C@@H]3CC[C@H]2[C@@H]3NC(=O)c2ccc(-c3cnc(=O)n(C)c3)cc2Cl)n1 (relative stereo) [Example 27, N-((1S*,4S*,7R*)-2-(3-Amino-5-methylisoxazolo[5,4-c]pyridin-7-yl)-2-azabicyclo[2.2.1]heptan-7-yl)-2-chloro-4-(1-methyl-2-oxo-1,2-dihydropyrimidin-5-yl)benzamide TFA salt]
≤ 100	Nc1noc2c(N3C[C@@H]4CC[C@H]3[C@@H]4NC(=O)c3ccc(-n4cnc5ccccc54)cc3Cl)ncc(Cl)c12 (relative stereo) [Example 21, N-((1S*,4S*,7R*)-2-(3-Amino-4-chloroisoxazolo[5,4-c]pyridin-7-yl)-2-azabicyclo[2.2.1]heptan-7-yl)-4-(1H-benzo[d]imidazol-1-yl)-2-chlorobenzamide]
≤ 100	Nc1noc2c(N3C[C@@H]4CC[C@H]3[C@@H]4NC(=O)c3ccc(-n4cnnc4)cc3)ncc(Cl)c12 (relative stereo) [Example 13, N-((1S*,4S*,7R*)-2-(3-Amino-4-chloroisoxazolo[5,4-c]pyridin-7-yl)-2-azabicyclo[2.2.1]heptan-7-yl)-4-(4H-1,2,4-triazol-4-yl)benzamide]
≤ 100	Nc1noc2c(N3C[C@@H]4CC[C@H]3[C@@H]4NC(=O)c3ccc(-c4ccc(=O)n(C(F)F)c4)cc3Cl)ncc(Cl)c12 (relative stereo) [Example 19, N-((1S*,4S*,7R*)-2-(3-Amino-4-chloroisoxazolo[5,4-c]pyridin-7-yl)-2-azabicyclo[2.2.1]heptan-7-yl)-2-chloro-4-(1-(difluoromethyl)-6-oxo-1,6-dihydropyridin-3-yl)benzamide]
≤ 100	Cc1ncn(-c2ccc(C(=O)N[C@@H]3[C@H]4CC[C@@H]3N(c3cc(Cl)cc5c(N)noc35)C4)c(Cl)c2)n1 (relative stereo) [Example 4, N-((1S*,4S*,7R*)-2-(3-Amino-5-chlorobenzo[d]isoxazol-7-yl)-2-azabicyclo[2.2.1]heptan-7-yl)-2-chloro-4-(3-methyl-1H-1,2,4-triazol-1-yl)benzamide]
≤ 100	Nc1noc2c(N3C[C@@H]4CC[C@H]3[C@@H]4NC(=O)c3ccc(-c4ccc5nncn5c4)cc3Cl)ncc(Cl)c12 (relative stereo) [Example 20, 4-([1,2,4]Triazolo[4,3-a]pyridin-6-yl)-N-((1S*,4S*,7R*)-2-(3-amino-4-chloroisoxazolo[5,4-c]pyridin-7-yl)-2-azabicyclo[2.2.1]heptan-7-yl)-2-chlorobenzamide]
≤ 100	Nc1noc2c(N3C[C@@H]4CC[C@H]3[C@@H]4NC(=O)c3ccc(-n4cnc5ncccc54)cc3Cl)ncc(Cl)c12 (relative stereo) [Example 22, N-((1S*,4S*,7R*)-2-(3-Amino-4-chloroisoxazolo[5,4-c]pyridin-7-yl)-2-azabicyclo[2.2.1]heptan-7-yl)-2-chloro-4-(1H-imidazo[4,5-b]pyridin-1-yl)benzamide]
≤ 100	Nc1noc2c(N3C[C@@H]4CC[C@H]3[C@@H]4NC(=O)c3ccc(-c4ccnnc4)cc3Cl)ncc(Cl)c12 (relative stereo) [Example 12, N-((1S*,4S*,7R*)-2-(3-Amino-4-chloroisoxazolo[5,4-c]pyridin-7-yl)-2-azabicyclo[2.2.1]heptan-7-yl)-2-chloro-4-(pyridazin-4-yl)benzamide]
≤ 100	Cc1cc2c(N)noc2c(N2CC3CCC2C3NC(=O)c2ccc(-n3cnc(C)n3)cc2Cl)n1 (single isomer, unassigned) [Example 11.2, N-((1S*,4S*,7R*)-2-(3-Amino-5-methylisoxazolo[5,4-c]pyridin-7-yl)-2-azabicyclo[2.2.1]heptan-7-yl)-2-chloro-4-(3-methyl-1H-1,2,4-triazol-1-yl)benzamide]
≤ 100	Cn1cc(-c2ccc(C(=O)N[C@@H]3[C@H]4CC[C@@H]3N(c3ncc(Cl)c5c(N)noc35)C4)c(Cl)c2)ccc1=O (relative stereo) [Example 18, N-((1S*,4S*,7R*)-2-(3-Amino-4-chloroisoxazolo[5,4-c]pyridin-7-yl)-2-azabicyclo[2.2.1]heptan-7-yl)-2-chloro-4-(1-methyl-6-oxo-1,6-dihydropyridin-3-yl)benzamide]
≤ 100	Cc1cc2c(N)noc2c(N2C[C@@H]3CC[C@H]2[C@@H]3NC(=O)c2ccc(-n3cnnc3C(F)(F)F)cc2Cl)n1 (relative stereo) [Example 26, N-((1S*,4S*,7R*)-2-(3-Amino-5-methylisoxazolo[5,4-c]pyridin-7-yl)-2-azabicyclo[2.2.1]heptan-7-yl)-2-chloro-4-(3-(trifluoromethyl)-4H-1,2,4-triazol-4-yl)benzamide]
100 to 1000	Cc1cc2c(N)noc2c(N2CC3CCC2C3NC(=O)c2ccc(-n3cnc(C)n3)cc2Cl)n1 (single isomer, unassigned) [Example 11.1, N-((1S*,4S*,7R*)-2-(3-Amino-5-methylisoxazolo[5,4-c]pyridin-7-yl)-2-azabicyclo[2.2.1]heptan-7-yl)-2-chloro-4-(3-methyl-1H-1,2,4-triazol-1-yl)benzamide]
≤ 100	Cc1cc2c(N)noc2c(N2C[C@@H]3CC[C@H]2[C@@H]3NC(=O)c2ccc(-n3cc(CCO)nn3)cc2Cl)n1 (relative stereo) [Example 15, N-((1S*,4S*,7R*)-2-(3-Amino-5-methylisoxazolo[5,4-c]pyridin-7-yl)-2-azabicyclo[2.2.1]heptan-7-yl)-2-chloro-4-(4-(2-hydroxyethyl)-1H-1,2,3-triazol-1-yl)benzamide]
≤ 100	Cn1cc(-c2ccc(C(=O)N[C@@H]3[C@H]4CC[C@@H]3N(c3nc(C#N)cc5c(N)noc35)C4)c(Cl)c2)ccc1=O (relative stereo) [Example 25, N-((1S*,4S*,7R*)-2-(3-Amino-5-cyanoisoxazolo[5,4-c]pyridin-7-yl)-2-azabicyclo[2.2.1]heptan-7-yl)-2-chloro-4-(1-methyl-6-oxo-1,6-dihydropyridin-3-yl)benzamide]
